Reference: patent US20070049564A1 (Wyeth, priority 2005, published 2007)
In brackets after ≈: the same amount, converted by molar mass. Where two headings read alike, the source gives them in different places.

Tests used:
Assay in all cases: MIC, broth microdilution
E. coli GC 2203 = conditions: Escherichia coli
P. aeruginosa GC 2214 = conditions: Pseudomonas aeruginosa
S. aureus GC 6467 = conditions: Staphylococcus aureus
c. albicans GC 3066 = system: c. albicans GC 3066
E. coli GC 6465 = conditions: Escherichia coli
E. coli GC 2271 = conditions: Escherichia coli
S. aureus GC 1079 = conditions: Staphylococcus aureus
E. coli GC 1073 = conditions: Escherichia coli
S. aureus GC 6469 = conditions: Staphylococcus aureus
E. faecium GC 2243 = conditions: Enterococcus faecium
S. aureus GC 6335 = conditions: Staphylococcus aureus
E. faecalis GC 2267 = conditions: Enterococcus faecalis
E. coli GC 4560 = conditions: Escherichia coli
S. aureus GC 1131 = conditions: Staphylococcus aureus
E. coli GC 2272 = conditions: Escherichia coli
E. coli GC 2233 = conditions: Escherichia coli
E. coli GC 3226 = conditions: Escherichia coli
E. faecalis GC 2265 = conditions: Enterococcus faecalis
E. coli GC 2270 = conditions: Escherichia coli
S. epidermidis GC 4935 = conditions: Staphylococcus epidermidis

MIC (E. coli GC 2203; GC2203, read-out: MINIMAL INHIBITORY CONCENTRATION MIC, pre-incubated in Mouse Serum): 1 µg/mL (≈ 1.32 µM)
MIC (E. coli GC 2203; GC2203, read-out: MINIMAL INHIBITORY CONCENTRATION MIC, pre-incubated in Water): > 64 µg/mL
MIC (P. aeruginosa GC 2214; GC2214, read-out: MINIMAL INHIBITORY CONCENTRATION MIC, pre-incubated in Mouse Serum): 32 µg/mL (≈ 42.3 µM)
MIC (P. aeruginosa GC 2214; GC2214, read-out: MINIMAL INHIBITORY CONCENTRATION MIC, pre-incubated in Water): > 64 µg/mL
MIC (S. aureus GC 6467; GC6467, read-out: MINIMAL INHIBITORY CONCENTRATION MIC, pre-incubated in Mouse Serum): 2 µg/mL (≈ 2.65 µM)
MIC (S. aureus GC 6467; GC6467, read-out: MINIMAL INHIBITORY CONCENTRATION MIC, pre-incubated in Water): 2 µg/mL (≈ 2.65 µM)
MIC (c. albicans GC 3066; Candida albicans, GC3066, read-out: MINIMAL INHIBITORY CONCENTRATION MIC): > 64 µg/mL
MINIMAL INHIBITORY CONCENTRATION MIC (c. albicans GC 3066; pre-incubated in Water): >64 UG/ML
MIC (E. coli GC 6465; GC6465, read-out: MINIMAL INHIBITORY CONCENTRATION MIC, pre-incubated in Mouse Serum): 8 µg/mL (≈ 10.6 µM)
MIC (E. coli GC 6465; GC6465, read-out: MINIMAL INHIBITORY CONCENTRATION MIC, pre-incubated in Water): > 64 µg/mL
MIC (E. coli GC 2271; GC2271, read-out: MINIMAL INHIBITORY CONCENTRATION MIC, pre-incubated in Mouse Serum): 1 µg/mL (≈ 1.32 µM)
MIC (E. coli GC 2271; GC2271, read-out: MINIMAL INHIBITORY CONCENTRATION MIC, pre-incubated in Water): 32 µg/mL (≈ 42.3 µM)
MIC (S. aureus GC 1079; GC1079, read-out: MINIMAL INHIBITORY CONCENTRATION MIC, pre-incubated in Mouse Serum): 1 µg/mL (≈ 1.32 µM)
MIC (S. aureus GC 1079; GC1079, read-out: MINIMAL INHIBITORY CONCENTRATION MIC, pre-incubated in Water): 2 µg/mL (≈ 2.65 µM)
MIC (E. coli GC 1073; GC1073, read-out: MINIMAL INHIBITORY CONCENTRATION MIC, pre-incubated in Mouse Serum): 2 µg/mL (≈ 2.65 µM)
MIC (E. coli GC 1073; GC1073, read-out: MINIMAL INHIBITORY CONCENTRATION MIC, pre-incubated in Water): > 64 µg/mL
MIC (S. aureus GC 6469; GC6469, read-out: MINIMAL INHIBITORY CONCENTRATION MIC, pre-incubated in Mouse Serum): 2 µg/mL (≈ 2.65 µM)
MIC (S. aureus GC 6469; GC6469, read-out: MINIMAL INHIBITORY CONCENTRATION MIC, pre-incubated in Water): 4 µg/mL (≈ 5.29 µM)
MIC (E. faecium GC 2243; GC2243, read-out: MINIMAL INHIBITORY CONCENTRATION MIC, pre-incubated in Mouse Serum): 0.5 µg/mL (≈ 0.662 µM)
MIC (E. faecium GC 2243; GC2243, read-out: MINIMAL INHIBITORY CONCENTRATION MIC, pre-incubated in Water): 1 µg/mL (≈ 1.32 µM)
MIC (S. aureus GC 6335; GC6335, read-out: MINIMAL INHIBITORY CONCENTRATION MIC, pre-incubated in Mouse Serum): 0.5 µg/mL (≈ 0.662 µM)
MIC (S. aureus GC 6335; GC6335, read-out: MINIMAL INHIBITORY CONCENTRATION MIC, pre-incubated in Water): 0.5 µg/mL (≈ 0.662 µM)
MIC (E. faecalis GC 2267; GC2267, read-out: MINIMAL INHIBITORY CONCENTRATION MIC, pre-incubated in Mouse Serum): 2 µg/mL (≈ 2.65 µM)
MIC (E. faecalis GC 2267; GC2267, read-out: MINIMAL INHIBITORY CONCENTRATION MIC, pre-incubated in Water): 4 µg/mL (≈ 5.29 µM)
MIC (E. coli GC 4560; GC4560, read-out: MINIMAL INHIBITORY CONCENTRATION MIC, pre-incubated in Mouse Serum): 0.5 µg/mL (≈ 0.662 µM)
MIC (E. coli GC 4560; GC4560, read-out: MINIMAL INHIBITORY CONCENTRATION MIC, pre-incubated in Water): 2 µg/mL (≈ 2.65 µM)
MIC (S. aureus GC 1131; GC1131, read-out: MINIMAL INHIBITORY CONCENTRATION MIC, pre-incubated in Mouse Serum): 0.5 µg/mL (≈ 0.662 µM)
MIC (S. aureus GC 1131; GC1131, read-out: MINIMAL INHIBITORY CONCENTRATION MIC, pre-incubated in Water): 0.5 µg/mL (≈ 0.662 µM)
MIC (E. coli GC 2272; GC2272, read-out: MINIMAL INHIBITORY CONCENTRATION MIC, pre-incubated in Mouse Serum): 2 µg/mL (≈ 2.65 µM)
MIC (E. coli GC 2272; GC2272, read-out: MINIMAL INHIBITORY CONCENTRATION MIC, pre-incubated in Water): 64 µg/mL (≈ 84.7 µM)
MIC (E. coli GC 2233; GC2233, read-out: MINIMAL INHIBITORY CONCENTRATION MIC, pre-incubated in Mouse Serum): 2 µg/mL (≈ 2.65 µM)
MIC (E. coli GC 2233; GC2233, read-out: MINIMAL INHIBITORY CONCENTRATION MIC, pre-incubated in Water): 32 µg/mL (≈ 42.3 µM)
MIC (E. coli GC 3226; GC3226, read-out: MINIMAL INHIBITORY CONCENTRATION MIC, pre-incubated in Mouse Serum): 2 µg/mL (≈ 2.65 µM)
MIC (E. coli GC 3226; GC3226, read-out: MINIMAL INHIBITORY CONCENTRATION MIC, pre-incubated in Water): > 64 µg/mL
MIC (E. faecalis GC 2265; GC2265, read-out: MINIMAL INHIBITORY CONCENTRATION MIC, pre-incubated in Mouse Serum): 2 µg/mL (≈ 2.65 µM)
MIC (E. faecalis GC 2265; GC2265, read-out: MINIMAL INHIBITORY CONCENTRATION MIC, pre-incubated in Water): 2 µg/mL (≈ 2.65 µM)
MIC (E. coli GC 2270; GC2270, read-out: MINIMAL INHIBITORY CONCENTRATION MIC, pre-incubated in Mouse Serum): 1 µg/mL (≈ 1.32 µM)
MIC (E. coli GC 2270; GC2270, read-out: MINIMAL INHIBITORY CONCENTRATION MIC, pre-incubated in Water): > 64 µg/mL
MIC (S. epidermidis GC 4935; GC4935, read-out: MINIMAL INHIBITORY CONCENTRATION MIC, pre-incubated in Mouse Serum): 1 µg/mL (≈ 1.32 µM)
MIC (S. epidermidis GC 4935; GC4935, read-out: MINIMAL INHIBITORY CONCENTRATION MIC, pre-incubated in Water): 2 µg/mL (≈ 2.65 µM)
Compound: CCCN(CC(=O)Nc1cc(N(C)C)c2c(c1O)C(=O)C1=C(O)[C@]3(O)C(=O)C(C(N)=O)=C(O)[C@@H](N(C)C)[C@@H]3C[C@@H]1C2)C(=O)OCOC(=O)c1cccs1 [Example 25, ({[(2-{[(5aR,6aS,7S,10aS)-9-(aminocarbonyl)-4,7-bis(dimethylamino)-1,8,10a,11-tetrahydroxy-10,12-dioxo-5,5a,6,6a,7,10,10a,12-octahydrotetracen-2-yl]amino}-2-oxoethyl)(propyl)amino]carbonyl}oxy)methyl thiophene-2-carboxylate]
